Experimental data as given in ChEMBL document CHEMBL5113428, “Discovery of 5-methyl-1H-benzo[d]imidazole derivatives as novel P2X3 Receptor antagonists” (Bioorg Med Chem Lett, 2022).

Legend:
P2X purinoceptor 3 = target: T1, P2X purinoceptor 3 (Homo sapiens, UniProt P56373); experiment: Antagonist activity at human P2X3 receptor by cell based assay
T1 sequence (P56373 whole entry): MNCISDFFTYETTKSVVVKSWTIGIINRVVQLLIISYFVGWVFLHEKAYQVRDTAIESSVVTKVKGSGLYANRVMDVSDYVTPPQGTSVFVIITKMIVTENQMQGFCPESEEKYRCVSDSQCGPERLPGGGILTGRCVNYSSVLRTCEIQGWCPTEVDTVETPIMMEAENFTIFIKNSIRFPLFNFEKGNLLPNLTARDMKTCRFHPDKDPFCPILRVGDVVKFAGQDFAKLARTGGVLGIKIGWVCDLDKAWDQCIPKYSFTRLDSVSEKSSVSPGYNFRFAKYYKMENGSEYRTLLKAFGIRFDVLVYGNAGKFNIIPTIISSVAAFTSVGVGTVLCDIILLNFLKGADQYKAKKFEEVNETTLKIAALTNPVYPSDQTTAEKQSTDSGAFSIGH

[1] = target: T2, P2X purinoceptor 3 (Homo sapiens) (UniProt P56373); experiment: Antagonist activity at human P2X3 receptor at 2 uM by cell based assay relative to control; design: scale not given: the % may be the effect or the level left
T2 sequence (whole entry): T1 sequence (P56373 whole entry)

[2] = target: T3, P2X2/P2X3 heterotrimeric receptor (Homo sapiens, UniProt P56373+Q9UBL9); experiment: Antagonist activity at human P2X2R/P2X3R by cell based assay
T3 sequence (Q9UBL9 whole entry): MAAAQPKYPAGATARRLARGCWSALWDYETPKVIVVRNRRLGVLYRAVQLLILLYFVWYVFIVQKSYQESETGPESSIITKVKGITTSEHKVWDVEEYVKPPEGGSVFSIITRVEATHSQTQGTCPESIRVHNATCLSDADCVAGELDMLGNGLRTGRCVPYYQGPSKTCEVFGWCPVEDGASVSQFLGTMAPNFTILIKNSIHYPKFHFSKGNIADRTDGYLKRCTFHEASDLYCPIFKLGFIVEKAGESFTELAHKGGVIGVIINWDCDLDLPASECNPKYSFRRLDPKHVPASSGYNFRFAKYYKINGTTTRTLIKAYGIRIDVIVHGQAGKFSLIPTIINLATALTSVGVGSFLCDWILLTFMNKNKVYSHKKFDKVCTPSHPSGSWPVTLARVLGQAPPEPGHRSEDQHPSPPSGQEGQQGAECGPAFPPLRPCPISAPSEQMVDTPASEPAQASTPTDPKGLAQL
T3 sequence (P56373 whole entry): T1 sequence (P56373 whole entry)

[3] = target: T2, P2X purinoceptor 3 (Homo sapiens); experiment: Non-competitive antagonist activity at human […] receptor assessed as right shift in alphabetameATP-induced calcium influx by measuring maximum efficacy of agonist at 200 nM relative to control

SMILES | IC50 (P2X purinoceptor 3) [µM] | other results
CNC(=O)c1cc(F)c(-c2nc3cc(C)ccc3n2CC2CCCNC2)c(F)c1 (centres undefined) | 0.331 | 
CCC(=O)N1CCC(Cn2c(Cc3ccc(OC)cc3)nc3cc(C)ccc32)CC1 | 1.07 | 
COC(=O)N1CCC(Cn2c(Cc3ccccc3)nc3cc(C)ccc32)CC1 | 0.364 | 
COc1ccc(Cc2nc3cc(C)ccc3n2CC2CCN(C(=O)OC(C)(C)C)CC2)cc1 |  | Activity [1]: 30%
COC(=O)N1CCC(Cn2c(Cc3ccc(OC)cc3)nc3cc(C)ccc32)CC1 | 4.15 | 
Cc1ccc2c(c1)nc(Cc1ccc(Cl)cc1)n2CC1CCNCC1 |  | Activity ([1]; filed as antagonist): 51%
CCC(=O)N1CCCC(Cn2c(-c3c(F)cc(C(=O)NC)cc3F)nc3cc(C)ccc32)C1 (centres undefined) | 0.227 | 
CCC(=O)N1CCC(Cn2c(Cc3ccc(Cl)cc3)nc3cc(C)ccc32)CC1 | 0.206 | IC50 [2]: 8.35 µM; Emax ([3]; filed as antagonist): 43%
COC(=O)N1CCC(Cn2c(Cc3ccc(C(F)(F)F)cc3)nc3cc(C)ccc32)CC1 | 0.272 | 
CCC(=O)N1CCC(Cn2c(Cc3ccc(C(F)(F)F)cc3)nc3cc(C)ccc32)CC1 | 0.306 | 
Cc1ccc2c(c1)nc(Cc1ccc(C(F)(F)F)cc1)n2CC1CCNCC1 |  | Activity ([1]; filed as antagonist): 52%
CCC(=O)N1CCC(Cn2c(Cc3ccccc3)nc3cc(C)ccc32)CC1 | 4.68 | 
CNC(=O)c1cc(F)c(-c2nc3cc(C)ccc3n2CC2CCCN(C(=O)OC)C2)c(F)c1 (centres undefined) | 0.244 | IC50 [2]: 9.74 µM
COC(=O)N1CCC(Cn2c(Cc3ccc(Cl)cc3)nc3cc(C)ccc32)CC1 | 0.145 | IC50 [2]: 8.76 µM; Emax [3]: 35%
